Test [1] concerns albino mice. Kind of test: Carrageenan-induced inflammation. The format is in vivo, Swiss albino mice. The conditions noted are these: standard aspirin (100 mg/kg in method). How it is done: After the acute toxicity studies, the carrageenan-induced inflammation assay was performed on the compounds having a safety profile within limit. Forty (40) albino mice of both sexes were alienated into five different groups, with eight mice in each group. Group I was tagged as the negative control group and was administered dimethylsulfoxide (10 mL/kg, 10% v/v) and phosphate buffer (150 µL). Group II was tagged as the standard/positive control group and received a dose of aspirin (100 mg/kg in 0.9% normal saline). The remaining groups (III, IV and V) were tagged as experimental groups and received synthesized compounds (25, 50 and 100 mg/kg in DMSO) and Tween-80 in normal saline. After half an hour, carrageenan suspension (0.05 mL, 1% w/v in saline) was injected into the animals. After the injection of the irritant/carrageenan, the inflammation in the paws was measured by a plethysmometer in intervals (1 to 5 h). The inflammation in the paws of animals in different groups was compared with that of the vehicle, and the percent anti-inflammatory activities were recorded as per the standard method.

For test [2], the system named is albino mice. Kind of test: Acetic acid induced writhing test. In kind it is in vivo, Swiss albino mice. The conditions noted are these: standard drug 10 mg/kg. The method, then: The acetic induced analgesic assay on the compounds FM10 and FM12 was performed to determine the role of the peripheral pathway. The albino mice of both sexes were divided into two groups. Compounds FM10 and FM12 were administered to both the groups in doses of 25 and 50 mg/kg. After 1 h, acetic acid was injected intraperitoneally in the strength of 10 mL/kg. The negative control was Tween 80 1% solution in the strength of 10 mL/kg. […] The activities in animals were determined from the number of stretchings and writings.
A general note: An intraperitoneal irritant provokes the stretching counted in writhing tests.

The subject of test [3] is mice. Kind of test: Hot plate test. The conditions noted are these: mouse, in vivo. Also noted: species or system Swiss albino mice. Background: Thermal pain tests record how soon the animal reacts.
In test [4] the test system is mice. Kind of test: Formalin-induced paw-licking test. The conditions noted are these: 5 mg/kg i.p.
Procedure: Swiss albino mice of both sexes with an average weight of 30 to 35 g were obtained from the respective section of NIH (National Institute of Health) Islamabad, Pakistan.
The early phase was initially five minutes, while the late phase was 15-30 min. In both the phases, the mice were under observation for licking. As per the protocols, naloxone (2 mg/kg), indomethacin (10 mg/kg) and morphine (5 mg/kg) were used [28].

Where “and” joins values, the source holds several entries; their conditions need not be identical. Equal values may be shown once. Marks after values point to notes of the source that are not given here.

For the compound `CC(=O)Oc1ccccc1C(=O)O` [aspirin, acetylsalicylic acid], the “Anti-inflammatory activity, carrageenan assay” value turned out to be 52.77% in the test with albino mice [1] (first hour) and 61.43% with albino mice [1] (fourth hour). Moreover, the “Mean inhibition of writhes” value in the test on albino mice [2] was 73.01%.
Take `CN1CC[C@]23c4c5ccc(O)c4O[C@H]2[C@@H](O)C=C[C@H]3[C@H]1C5` [Morphine]: the “Reaction time on hot plate” value in the test with mice [3] was 12.88 ± 0.26 min and 12.31 ± 0.62 min and 11.86 ± 0.87 min. The “Percent (%) inhibition, 0–5 min” value with mice [4] (early phase) is recorded as 88.64 *** %; in the test on mice [4] (early phase, listed as morphine), 88.64%. The “Time spent (licking) 0–5 min” value with mice [4] (early phase) is recorded as 6.50 ± 0.78 s. Moreover, the “Percent (%) inhibition, 15–30 min” value in the test with mice [4] (late phase) is reported as 93.81 *** %; with mice [4] (late phase, listed as morphine) it was 93.81%. The “Time spent (licking) 15–30 min” value in the test on mice [4] (late phase) was determined as 4.83 ± 0.62 s.

Source of the values: publication PMC9268591, “Anti-Inflammatory, Analgesic and Antioxidant Potential of New (2S,3S)-2-(4-isopropylbenzyl)-2-methyl-4-nitro-3-phenylbutanals and Their Corresponding Carboxylic Acids through In Vitro, In Silico and In Vivo Studies” (Molecules, 2022).
